# Measured values published in paper PMC8113240 (Scientific Reports, 2021).
# Target: T1, FK506 binding protein 12 (FKBP12) (Homo sapiens, UniProt P42345+P62942)
# T1 construct: gene FKBP1A; pAsh-FKBP12 co-transfected with phAG-mTOR in HeLa cells; with mTOR
# Test: Fluoppi cell assay of FKBP12-mTOR ternary complex formation in HeLa cells
# Format: cell-based
# T1 sequence (P62942 2-108, other chains not shown): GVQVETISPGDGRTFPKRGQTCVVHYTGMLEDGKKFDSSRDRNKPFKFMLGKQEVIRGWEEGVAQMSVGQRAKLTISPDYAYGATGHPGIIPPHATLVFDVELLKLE
smiles,measurement,value
"COC1CC(O)CC(=O)CC(=O)N2CCCCC2C(=O)OC(C(C)CC2CCC(O)C(OC)C2)CC(=O)C(C)C=C(C)C(O)C(OC)C(=O)C(C)CC(C)C=CC=CC=C1C (mixture of isomers) [compound 1, 1]",EC50,1880 nM
